Experimental data: ChEMBL document CHEMBL5241054, “Effective anti-aromatase therapy to battle against estrogen-mediated breast cancer: Comparative SAR/QSAR assessment on steroidal aromatase inhibitors” (Eur J Med Chem, 2020)

Experiments:
Aromatase [1] = target: T1, Aromatase (Homo sapiens, UniProt P11511)
T1 sequence (P11511 whole entry): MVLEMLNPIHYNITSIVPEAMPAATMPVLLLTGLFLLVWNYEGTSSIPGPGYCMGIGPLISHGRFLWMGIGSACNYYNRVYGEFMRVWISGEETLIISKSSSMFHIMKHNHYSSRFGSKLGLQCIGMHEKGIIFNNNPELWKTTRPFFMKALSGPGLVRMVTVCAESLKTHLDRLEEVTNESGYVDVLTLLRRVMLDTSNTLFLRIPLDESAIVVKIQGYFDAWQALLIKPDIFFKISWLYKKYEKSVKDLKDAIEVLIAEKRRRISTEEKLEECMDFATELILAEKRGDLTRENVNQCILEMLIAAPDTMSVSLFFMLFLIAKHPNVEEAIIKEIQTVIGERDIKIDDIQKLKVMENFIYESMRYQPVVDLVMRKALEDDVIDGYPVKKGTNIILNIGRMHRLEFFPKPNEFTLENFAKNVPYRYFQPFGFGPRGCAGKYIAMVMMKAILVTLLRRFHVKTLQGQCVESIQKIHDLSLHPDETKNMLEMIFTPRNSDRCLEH

Aromatase [2] = target: T1, Aromatase; remark: listed apart in the source

## CN1N=C2[C@H](C[C@H]3[C@@H]4CC[C@H]5C[C@@H](O)CC[C@]5(C)[C@H]4CC[C@]23C)[C@H]1c1ccccc1
Aromatase [1]
  IC50: 6.34 µM

## CCO[C@@H]1C[C@@H]2[C@H](CC[C@]3(C)C(=O)CC[C@@H]23)[C@@]2(C)CCC(=O)C=C12
Aromatase [1]
  IC50: 0.5 µM

## CO[C@H]1C[C@@H]2[C@H](CC[C@]3(C)C(=O)CC[C@@H]23)[C@@]2(C)C=CC(=O)C=C12
Aromatase [1]
  IC50: 0.44 µM

## CO[C@@H]1C[C@@H]2[C@H](CC[C@]3(C)C(=O)CC[C@@H]23)[C@@]2(C)CCC(=O)C=C12
Aromatase [1]
  IC50: 0.17 µM

## C[C@]12CC[C@H](O)C[C@@H]1CC[C@@H]1[C@@H]2CC[C@]2(C)C3=NN[C@H](c4ccccc4)[C@H]3C[C@@H]12
Aromatase [1]
  IC50: 6.9 µM

## COc1ccc([C@H]2NN=C3[C@@H]2C[C@H]2[C@@H]4CCC5=CC(=O)C=C[C@]5(C)[C@H]4CC[C@]32C)cc1
Aromatase [1]
  IC50: 2.91 µM

## C[C@@H]1C[C@@]2(C=O)C(=CC1=O)CC[C@@H]1[C@@H]2CC[C@]2(C)C(=O)CC[C@@H]12
Aromatase [1]
  IC50: 12 µM

## C/C=C1\CC[C@@]2(C)[C@@H](CC[C@@H]3[C@@H]2CC[C@]2(C)C4=NN(C)[C@H](c5ccccc5)[C@H]4C[C@@H]32)C1
Aromatase [1]
  IC50: 3.51 µM

## CCCCO[C@@H]1C[C@@H]2[C@H](CC[C@]3(C)C(=O)CC[C@@H]23)[C@@]2(C)CCC(=O)C=C12
Aromatase [1]
  IC50: 0.42 µM

## C[C@]12CCC(=O)C(SCCl)=C1CC[C@@H]1C2=CC[C@]2(C)C(=O)CC[C@@H]12
Aromatase [1]
  IC50: 0.859 µM

## C[C@]12C=CC(=O)C=C1[C@@H](OCc1ccccc1)C[C@@H]1[C@@H]2CC[C@]2(C)C(=O)CC[C@@H]12
Aromatase [1]
  IC50: 1.9 µM

## CC(=O)N1N=C2[C@H](C[C@H]3[C@@H]4CC[C@H]5CC(=O)CC[C@]5(C)[C@H]4CC[C@]23C)[C@H]1c1ccccc1
Aromatase [1]
  IC50: 4.91 µM

## C/C=C1\CC[C@@]2(C)[C@@H](CC[C@@H]3[C@@H]2CC[C@]2(C)C4=NN(C)[C@H](c5ccc(OC)cc5)[C@H]4C[C@@H]32)C1
Aromatase [1]
  IC50: 3.4 µM

## COc1ccc(/C=C2/C[C@H]3[C@@H]4CC[C@H]5C[C@@H](O)CC[C@]5(C)[C@H]4CC[C@]3(C)C2=O)cc1
Aromatase [1]
  IC50: 7.13 µM

## C[C@]12CCC(=O)C=C1[C@@H](Oc1ccccc1)C[C@@H]1[C@@H]2CC[C@]2(C)C(=O)CC[C@@H]12
Aromatase [1]
  IC50: 0.1 µM

## COc1ccc([C@@H]2[C@H]3C[C@H]4[C@@H]5CC[C@H]6C[C@@H](OC(=O)C(F)(F)F)CC[C@]6(C)[C@H]5CC[C@]4(C)C3=NN2C)cc1
Aromatase [1]
  IC50: 5.78 µM

## CN1N=C2[C@H](C[C@H]3[C@@H]4CCC5=CC(=O)C=C[C@]5(C)[C@H]4CC[C@]23C)[C@H]1c1ccccc1
Aromatase [1]
  IC50: 2.45 µM

## COc1ccc([C@H]2NN=C3[C@@H]2C[C@H]2[C@@H]4CC[C@H]5CC(=O)CC[C@]5(C)[C@H]4CC[C@]32C)cc1
Aromatase [1]
  IC50: 4.88 µM

## COCSC1=C2CC[C@@H]3[C@H](CC[C@]4(C)C(=O)CC[C@@H]34)[C@@]2(C)CCC1=O
Aromatase [1]
  IC50: 10 µM

## C[C@]12C[C@@H](Br)C(=O)C=C1CC[C@@H]1[C@@H]2CC[C@]2(C)C(=O)CC[C@@H]12
Aromatase [1]
  IC50: 2.2 µM

## CSC1=C2CC[C@@H]3[C@H](CC[C@]4(C)C(=O)CC[C@@H]34)[C@@]2(C)CCC1=O
Aromatase [1]
  IC50: 4.4 µM

## C[C@]12CCC(=O)C[C@@H]1CC[C@@H]1[C@@H]2CC[C@]2(C)C3=NN(c4ccccc4)[C@H](c4ccccc4)[C@H]3C[C@@H]12
Aromatase [1]
  IC50: 4.27 µM

## CC(=O)O[C@@H]1C[C@@H]2[C@H](CC[C@]3(C)C(=O)CC[C@@H]23)[C@@]2(C)C=CC(=O)C=C12
Aromatase [1]
  IC50: 5 µM

## C[C@]12CC[C@H](OC(=O)C(F)(F)F)C[C@@H]1CC[C@@H]1[C@@H]2CC[C@]2(C)C(=O)/C(=C\c3ccccc3)C[C@@H]12
Aromatase [1]
  IC50: 7.11 µM

## C[C@]12C=CC(=O)C=C1CC[C@@H]1[C@@H]2CC[C@]2(C)C(=O)C(Br)C[C@@H]12 (stereo partly drawn)
Aromatase [1]
  IC50: 13.2 µM

## C[C@]12C=CC(=O)C=C1CC[C@@H]1[C@@H]2CC[C@]2(C)C3=NN[C@H](c4ccccc4)[C@H]3C[C@@H]12
Aromatase [1]
  IC50: 3.01 µM

## C[C@]12C=CC(=O)C=C1[C@@H](Oc1ccccc1)C[C@@H]1[C@@H]2CC[C@]2(C)C(=O)CC[C@@H]12
Aromatase [1]
  IC50: 0.53 µM

## CN1N=C2[C@H](C[C@H]3[C@@H]4CC[C@H]5C[C@@H](OC(=O)C(F)(F)F)CC[C@]5(C)[C@H]4CC[C@]23C)[C@H]1c1ccccc1
Aromatase [1]
  IC50: 5.81 µM

## CCCCO[C@@H]1C[C@@H]2[C@H](CC[C@]3(C)C(=O)CC[C@@H]23)[C@@]2(C)C=CC(=O)C=C12
Aromatase [1]
  IC50: 0.46 µM

## CCCCCCC(=O)O[C@H]1C[C@@H]2[C@H](CC[C@]3(C)C(=O)CC[C@@H]23)[C@@]2(C)CCC(=O)C=C12
Aromatase [1]
  IC50: 0.0951 µM

## C[C@]12CCC(=O)C[C@@H]1CC[C@@H]1[C@@H]2CC[C@]2(C)C3=NN[C@H](c4ccccc4)[C@H]3C[C@@H]12
Aromatase [1]
  IC50: 5.24 µM

## CCO[C@@H]1C[C@@H]2[C@H](CC[C@]3(C)C(=O)CC[C@@H]23)[C@@]2(C)C=CC(=O)C=C12
Aromatase [1]
  IC50: 0.56 µM

## C[C@]12C=CC(=O)C=C1[C@H](OCc1ccccc1)C[C@@H]1[C@@H]2CC[C@]2(C)C(=O)CC[C@@H]12
Aromatase [1]
  IC50: 0.15 µM

## CCCCCCCC1=C[C@@]2(C)C(=CC1=O)CC[C@@H]1[C@@H]2CC[C@]2(C)C(=O)CC[C@@H]12
Aromatase [2]
  IC50: 0.605 µM

## C[C@]12CC[C@H]3[C@@H](CCC4=CC(=O)CC[C@@]43C(F)F)[C@@H]1CCC2=O
Aromatase [2]
  IC50: 4 µM

## C[C@]12CCC(=O)C(Sc3ccccc3)=C1CC[C@@H]1[C@@H]2CC[C@]2(C)C(=O)CC[C@@H]12
Aromatase [2]
  IC50: 0.18 µM

## C[C@]12CC[C@H]3[C@@H](CCC4=CCCC[C@@]43CO)[C@@H]1CCC2O (stereo partly drawn)
Aromatase [2]
  IC50: 2.3 µM

## C[C@]12CCCC=C1[C@H]1C[C@H]1[C@@H]1[C@@H]2CC[C@]2(C)C(=O)CC[C@@H]12
Aromatase [2]
  IC50: 0.15 µM

## C[C@]12CC[C@@H]3c4ccc(O)cc4CC[C@H]3[C@@H]1CCC2=O [ESTRONE]
Aromatase [2]
  IC50: 26 µM

## CCO[C@H]1C[C@@H]2[C@H](CC[C@]3(C)C(=O)CC[C@@H]23)c2ccc(O)cc21
Aromatase [2]
  IC50: 74 µM

## COc1ccc(CS[C@@H]2CC3=CC(=O)CC[C@]3(C)[C@H]3CC[C@]4(C)C(=O)CC[C@H]4[C@H]23)cc1
Aromatase [2]
  IC50: 0.031 µM

## C[C@]12CC[C@H]3[C@@H](CCC4=CCCC[C@@]43C=O)[C@@H]1C[C@@H](O)C2=O
Aromatase [2]
  IC50: 28 µM

## C[C@]12CC[C@H]3[C@@H](CCC4=CC(=O)C=C[C@@]43CCl)[C@@H]1CCC2=O
Aromatase [2]
  IC50: 0.951 µM

## C[C@H]1C[C@@H]2[C@H](CC[C@]3(C)[C@@H](O)CC[C@@H]23)c2ccc(O)cc21
Aromatase [2]
  IC50: 19 µM

## C[C@]12C=CC(=O)C=C1C=C[C@@H]1[C@@H]2CC[C@]2(C)C(=O)CC[C@@H]12
Aromatase [2]
  IC50: 0.45 µM

## C[C@]12CC[C@H]3[C@@H](C=CC4=CC(=O)C=C[C@@]43CI)[C@@H]1CCC2=O
Aromatase [2]
  IC50: 4.7 µM

## C[C@]12CC[C@H]3[C@@H](CCC4=CC(=O)CC[C@@]43C=O)[C@@H]1CCC2=O
Aromatase [2]
  IC50: 1.2 µM

## C[C@]12C=CC(=O)C=C1[C@H](CCCCc1ccccc1)C[C@@H]1[C@@H]2CC[C@]2(C)C(=O)CC[C@@H]12
Aromatase [2]
  IC50: 0.47 µM

## C[C@]12CCCC(=O)C1CC[C@@H]1[C@@H]2CC[C@]2(C)C(=O)CC[C@@H]12 (stereo partly drawn)
Aromatase [2]
  IC50: 2.4 µM

## CC(=O)OC[C@]12CCCC=C1CC[C@@H]1[C@@H]2CC[C@]2(C)C(O)CC[C@@H]12 (stereo partly drawn)
Aromatase [2]
  IC50: 44 µM

## C[C@]12C=C(Br)C(=O)C=C1CC[C@@H]1[C@@H]2CC[C@]2(C)C(=O)CC[C@@H]12
Aromatase [2]
  IC50: 1.84 µM

## C[C@]12CC[C@@H]3c4ccc(O)c(NC(=O)c5ccccn5)c4CC[C@H]3[C@@H]1CCC2=O
Aromatase [2]
  IC50: 203 µM

## CCC[C@@H]1C[C@@]2(C)C(=CC1=O)CC[C@@H]1[C@@H]2CC[C@]2(C)C(=O)CC[C@@H]12
Aromatase [2]
  IC50: 1.46 µM

## C[C@]12CCC=CC1=CC[C@@H]1[C@@H]2CC[C@]2(C)C(=O)CC[C@@H]12
Aromatase [2]
  IC50: 0.34 µM

## CC[C@@H]1C[C@@H]2[C@H](CC[C@]3(C)C(=O)CC[C@@H]23)[C@@]2(C)CCC(=O)C=C12
Aromatase [2]
  IC50: 0.14 µM

## CCCCC[C@H]1C[C@@H]2[C@H](CC[C@]3(C)C(=O)CC[C@@H]23)[C@@]2(C)C=CC(=O)C=C12
Aromatase [2]
  IC50: 0.14 µM

## CCCCCCC[C@H]1C[C@@H]2[C@H](CC[C@]3(C)C(=O)CC[C@@H]23)[C@@]2(C)C=CC(=O)C=C12
Aromatase [2]
  IC50: 0.25 µM

## C[C@]12CCCC(=O)C1=CC(=O)[C@@H]1[C@@H]2CC[C@]2(C)C(=O)CC[C@@H]12
Aromatase [2]
  IC50: 3.6 µM

## C=CC[C@]12CCC(=O)C=C1CC[C@@H]1[C@@H]2CC[C@]2(C)C(=O)CC[C@@H]12
Aromatase [2]
  IC50: 1.8 µM

## C[C@]12CC[C@H]3[C@@H]([C@H](CCc4ccccc4)CC4=CC(=O)CC[C@@]43C)[C@@H]1CC[C@@H]2O
Aromatase [2]
  IC50: 0.036 µM

## C=C[C@@H]1C[C@@H]2[C@H](CC[C@]3(C)C(=O)CC[C@@H]23)[C@@]2(C)CCC(=O)C=C12
Aromatase [2]
  IC50: 0.32 µM

## C[C@]12C=CC(=O)C=C1C(CCCCCc1ccccc1)=C[C@@H]1[C@@H]2CC[C@]2(C)C(=O)CC[C@@H]12
Aromatase [2]
  IC50: 0.1 µM

## COC1=C[C@@]2(C)C(=CC1=O)CC[C@@H]1[C@@H]2CC[C@]2(C)C(=O)CC[C@@H]12
Aromatase [2]
  IC50: 1.1 µM
